Patent US10391070B2, “Compositions and methods for treating neurological diseases or injury” (MUSC FOUNDATION FOR RESEARCH DEVELOPMENT, priority 2012, dated 2019)

Assays:
PTZ-induced seizures = assay: PTZ-induced seizure (swim activity) model in zebrafish larvae; format: in vivo, zebrafish (Danio rerio); conditions: for Seizure suppression: pretreated 1 hr at NOEC
Description: The DanioVision locomotion tracking instrument with Ethovision XT software (Noldus) was used to measure the severity of the seizures by quantifying the locomotor activity of each fish.
In a 48-well plate, one 6-7 dpf larva was added per well. Compounds were given at a sub-lethal dose and treated for 1 h. Three control rows were included—tank water (TW) only, PTZ only and PTZ+VPA (2-4 mM final concentration of VPA). […] After 5 min, the plate was transferred to the Daniovision apparatus and the chamber light was turned on. After 2 min, Ethovision was used to determine the distance traveled (a marker of seizure of activity) by each fish for 15 min (25 frames per second). Velocity, duration of movement, and frequency of movement were also determined from the same recording. After measurement, fish were monitored visually for survival. The distance moved over the recording period with Ethovision XT software (Noldus) was averaged over 8 wells per treatment unless the fish was not detected.
In a 48-well plate, one 7 dpf zebrafish was added per well. Larvae were dosed with each compound at a sub-lethal dose 1 h prior to PTZ treatment. Three control rows were included with each experiment—tank water only control, PTZ only and PTZ+VPA (4 mM final concentration of VPA). […] After 5 min, the plate was transferred to the Daniovision instrument (Noldus Information Technology) and the chamber light was turned on. After 2 min, MediaRecorder (Noldus) was used to record video for 15 min. A small number of videos were acquired 25 frames per second, but the majority of the data was acquired at the frame rate of 60 frames per second. After recording, fish were monitored visually for survival. Ethovision XT software (Noldus) was used to track the fish movement from the video images in order to calculate the total distance traveled over 15 min. […] All experimental comparisons were made between animals from the same clutch.

zebrafish larvae = assay: Zebrafish larval toxicity (NOEC, lethal dose); format: in vivo; conditions: 7 dpf zebrafish larvae; for Lethal dose: up to 5 h treatment; for Highest concentration tested for anti-seizure activity: highest sub-lethal dose
Description: Using a 96-well plate, one zebrafish larva (7 dpf) was placed in each well in 100 μL of tank water (TW). 100 μL of each compound (0.5-15 μM) was then added to each well for 12 animals (one row) to give a final volume of 200 […]. A control row was tested for DMSO toxicity effects. […] Each drug was assessed for the no observed effect concentration (NOEC), the highest non-lethal dose resulting in no apparent toxic effects.
Zebrafish (AB strain) were obtained from the Zebrafish International Resource Center (supported by P40 RR012546 from NIH-NCRR). Zebrafish were maintained and crossed according to standard methods (Westerfield, 2000). Fertilized eggs were collected and placed in E3 embryo medium and positioned in an incubator set at 28.5° C. with a 14/10 h light/dark cycle (Kimmel et al., 1995). To determine the lethal dose of each compound, 96-well plates containing one zebrafish (7 days post-fertilization, dpf) per well in 100 μL of tank water were used. 100 μL of each compound (0.5 to 15 μM) was added to each well for 12 animals (one row) for a final volume of 200 μL. One row of larvae was used as DMSO only controls. […] All zebrafish studies were approved by the Medical University of South Carolina Institutional Animal Care and Use Committee (AR #2850) and performed in accordance with the guidelines.
Using a 96-well plate, one zebrafish larva (7 dpf) was placed in each well in 100 μL of tank water. 100 μL of each compound was then added to each well for 12 animals (one row) for a final volume of 200 μL. One row of zebrafish larvae was used as DMSO only controls. […] Toxicity was also measured in the mouse model by the NIH Anticonvulsant Screening Program at the National Institute of Neurological Disorders and Stroke (Stables and Kupferberg, 1997), according to the established NIH experimental procedures. Compounds were delivered into mice by intraperitoneal (i.p.) injection at a dose of 100 mg/kg in sterile 5% DMSO, 95% Neobee (Josey et al., 2013). Acute toxicity was assessed by monitoring the animals for impaired neuromuscular function by placing treated mice on a rod rotating at 6 rpm. […]

HT22 cells = assay: Glutathione determination in glutamate-treated cells; format: cell-based, mouse; conditions: HT22, 10 mM glutamate 8 hrs
Description: The content of total glutathione (reduced and oxidized) in the supernatant of cell homogenate was measured using the glutathione assay kit (Cayman Chemical) in microtiter plate assay, which utilizes an enzymatic recycling method, using glutathione reductase, for the quantification of glutathione. The sulfhydryl group of glutathione reacted with 5,5′-dithiobis-2-nitrobenzoic acid (DTNB) and produced a yellow-colored 5-thio-2-nitrobenzoic acid (TNB), which was measured at 405 nm.

HT-22 neuronal cells = assay: Respirometry (OCR, ECAR; Seahorse XF-96); format: cell-based, mouse; design: ECAR (glycolysis), difference from control: unit not given here; conditions: HT-22 cells, mean±SEM
Description: Oxygen consumption rates (OCR) and extracellular acidification rates (ECAR) of HT-22 neuronal cells were performed on the XF-96 Extracellular Flux Analyzer (Seahorse Bioscience) using standard methods (Beeson et al., 2010). In brief, cells were cultured in 96 well Seahorse plates in DMEM high glucose media (Invitrogen) supplemented with 10% FBS, 10 mM HEPES, and 1% antibiotic-antimycotic (Invitrogen). The media was replaced with DMEM media supplemented with 25 mM glucose, 10 mM sodium pyruvate, 31 mM NaCl, and 2 mM glutamine at pH 7.4. Each of the four drug ports on the Seahorse sensor cartridge were filled with test compound (media only, 5 μM NQN-1, 10 μM VK3 or 12.5 μM MB), 10 μM oligomycin, 1 μM FCCP, and 5 μM rotenone, which were injected into each well at 20, 80, 110, and 135 min, respectively. The pmol/min OCR rate for each well (9-52 wells/group) was measured. Wells were excluded from the analysis if their OCR values surpassed the Tukey Outlier Rule. In order to standardize the OCR rates across wells, the average OCR value at 17 min (last time point prior to injection of the test compounds) for each experimental group was calculated, and set to 100. All OCR values are given as a percentage of this pre-treatment value. […]

c-fos = c-fos gene expression in PTZ-treated zebrafish larvae; format: in vivo, zebrafish (Danio rerio); conditions: 7 dpf zebrafish, pre-treatment
Description: Ten 7 dpf larvae were placed in 500 μL tank water in wells of a 48-well cell-culture plate and appropriate concentrations of drugs were added as in the behavior study (Table 9). After a 1 h pre-incubation period, PTZ was added to a final concentration of 15 mM in appropriate wells and larvae were incubated for a further 45 min. Fish were quickly euthanized by incubating the plate in an ice-water bath for 15 min. Fish were removed from each well and all liquid removed before freezing at −80° C. RNA was extracted using Trizol (Invitrogen) followed by the RNeasy Mini kit (Qiagen). Frozen embryos were homogenized in 800 μL Trizol using in-tube pestles and a motorized homogenizer. Following a 5-min incubation at room temperature, 200 μL chloroform was added and the samples were centrifuged at 12,000 g for 10 min. The aqueous phase was transferred to a new tube and 250 μL 100% ethanol was added and the samples mixed. This mixture was then transferred to the Qiagen minicolumn assembly and the protocol followed as described with the kit. Samples were eluted in 30 μL RNase free water and concentration was determined using the Nanodrop instrument (Thermo Fisher). cDNA was prepared using the RETROscript kit (Ambion) with 500 ng total RNA. cDNA was then diluted 1:1 with sterile dH2O and 2.5 μL of this cDNA was used in the QPCR reaction with SsoAdvanced SYBR Green Supermix (BioRad) and c-fos primers designed to span an intron-exon junction (c-fos F: […], SEQ ID NO:9; c-fos R: […], SEQ ID NO:10) ([…] each) in the BioRad CFX96 RealTime instrument. L13a and EF1a gene expression were used for normalization (Rahn et al., 2013). The following cycle conditions were used: 95° C./3 min, 40 cycles of 95° C./15 s, 62° C./30 s, followed by 95° C. 30 s and a dissociation curve. Samples were run in duplicate. The 2^−ΔΔCt method was used to quantify gene expression, whereby all gene Ct values were first normalized to Ct values of the geometric mean of the Ct of L13a and EF1a (Livak and Schmittgen, 2001). Treated samples were then normalized to the tank water control and converted to fold change.

[1] = Antioxidant activity assay (DPPH free radical scavenging); conditions: 20 μM, 100 μM DPPH in methanol
Description: Antioxidant activity of various reagents was assayed as previously described by monitoring the disappearance of the optical absorbance of the stable-free radical DPPH on reaction with test compounds (Blois, 1958). The rate of the reaction represents the antioxidant potency of test agents. The known free radical scavenger Trolox and ascorbic acid were used as positive controls. Briefly, 10 μL of test reagents at final concentrations of 20 μM were added to 200 μL of 100 μM DPPH in methanol. Optical absorbance of DPPH at 517 nm was immediately monitored for 10 min.

SMILES | Seizure suppression (PTZ-induced seizures; PTZ-treated zebrafish larvae) | Lethal dose (zebrafish larvae) [mM] | Highest concentration tested for anti-seizure activity (zebrafish larvae) [mM] | further results
O=C(NO)C(c1ccccc1)c1ccccc1 [Diphenyl acetic hydroxamic acid (dPAHA), diphenyl acetic hydroxamic acid] | No | 0.01 | 0.0075 | 
COC1=C(OC)C(=O)C(CCCCCCCCCCO)=C(C)C1=O [Ideb, Idebenone] |  |  |  | depletion of total cellular GSH (HT22 cells; 5 μM): did not prevent GSH depletion
CN(C)c1ccc2nc3ccc(=[N+](C)C)cc-3sc2c1.[Cl-] [MB, reference compound] |  |  |  | basal cellular respiration, difference in OCR from control (HT-22 neuronal cells; 1 h treatment, OCR as percentage of pre-treatment value): 53.21±5.92; basal mitochondrial respiration, difference from control (HT-22 neuronal cells; basal minus non-mitochondrial (rotenone)): 19.22±6.54; ATP-linked respiration, difference from control (HT-22 neuronal cells; basal minus oligomycin): 19.76±6.59; ECAR (glycolysis), difference from control (HT-22 neuronal cells): −0.86±1.26
CN1C(=O)C(Cc2c[nH]c3ccccc23)NC1=S (stereo not drawn) [Nec-1, Necrostatin-1] |  |  |  | depletion of total cellular GSH (HT22 cells; 50 μM): did not prevent GSH depletion
O=C(CCCCCCC(=O)Nc1ccccc1)NO [Suberoylanilide hydroxamic acid (SAHA), suberoylanilide hydroxamic acid] | No | >0.015 | 0.015 | 
CN1CCc2c(c3ccccc3n2Cc2ccc(C(=O)NO)cc2)C1 [Tubastatin A (Tub A), Tubastatin A] | No | >0.012 | 0.012 | 
CCCC(CCC)C(=O)O [Valproic Acid (VPA), 2-n-propylpentanoic acid] | Yes |  | 4 | required concentration for reduction of seizures (PTZ-induced seizures; PTZ-treated zebrafish larvae): 4 mM; PTZ-induced swim activity (distance traveled) (PTZ-induced seizures; zebrafish larvae, 1 h pretreatment at sub-lethal concentration (VPA 4 mM, NQN-1 3 μM), 15 mM PTZ): significantly reduced distance traveled compared to PTZ alone; PTZ-induced increase in c-fos expression (c-fos): able to blunt this increase in expression
O=C1O[C@H]([C@@H](O)CO)C(O)=C1O [ascorbic acid] |  |  |  | free radical scavenging capacity (DPPH absorbance) [1]: rapidly scavenged DPPH
